Measurements as given in patent publication US11572590B2, “Methods for evaluating tumor cell spheroids using 3D microfluidic cell culture device” (Dana-Farber Cancer Institute, Inc., priority 2017, dated 2023).
Read-outs that look alike come from different tables or passages of the source.

What was measured:
Test in all cases: SelectScreen Kinase Profiling, single point inhibition and IC50 for off-target kinases
Type in all cases: biochemical
off-target kinases [1] = molecular target: off-target kinases (Homo sapiens, UniProt Q13557); details: CAMK2D (CaMKII delta), ZLYTE, ATP Km app
off-target kinases (Homo sapiens, UniProt Q13557), sequence (Q13557 whole entry): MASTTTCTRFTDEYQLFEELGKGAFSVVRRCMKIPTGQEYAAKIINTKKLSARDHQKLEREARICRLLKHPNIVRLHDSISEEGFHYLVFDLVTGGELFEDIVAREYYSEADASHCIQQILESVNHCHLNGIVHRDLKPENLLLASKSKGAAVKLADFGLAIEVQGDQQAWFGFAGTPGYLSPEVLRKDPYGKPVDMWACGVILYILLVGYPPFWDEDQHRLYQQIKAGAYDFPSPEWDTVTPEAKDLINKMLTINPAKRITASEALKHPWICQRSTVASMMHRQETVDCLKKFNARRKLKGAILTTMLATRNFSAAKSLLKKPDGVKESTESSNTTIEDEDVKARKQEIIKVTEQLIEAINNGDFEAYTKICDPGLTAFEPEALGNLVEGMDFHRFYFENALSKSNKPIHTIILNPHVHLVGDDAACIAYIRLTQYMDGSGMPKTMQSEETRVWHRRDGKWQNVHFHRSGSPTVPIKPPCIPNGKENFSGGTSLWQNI

off-target kinases [2] = molecular target: off-target kinases (Homo sapiens, UniProt P31751); details: AKT2 (PKB beta), ZLYTE, ATP Km app
off-target kinases (Homo sapiens, UniProt P31751), sequence (P31751 whole entry): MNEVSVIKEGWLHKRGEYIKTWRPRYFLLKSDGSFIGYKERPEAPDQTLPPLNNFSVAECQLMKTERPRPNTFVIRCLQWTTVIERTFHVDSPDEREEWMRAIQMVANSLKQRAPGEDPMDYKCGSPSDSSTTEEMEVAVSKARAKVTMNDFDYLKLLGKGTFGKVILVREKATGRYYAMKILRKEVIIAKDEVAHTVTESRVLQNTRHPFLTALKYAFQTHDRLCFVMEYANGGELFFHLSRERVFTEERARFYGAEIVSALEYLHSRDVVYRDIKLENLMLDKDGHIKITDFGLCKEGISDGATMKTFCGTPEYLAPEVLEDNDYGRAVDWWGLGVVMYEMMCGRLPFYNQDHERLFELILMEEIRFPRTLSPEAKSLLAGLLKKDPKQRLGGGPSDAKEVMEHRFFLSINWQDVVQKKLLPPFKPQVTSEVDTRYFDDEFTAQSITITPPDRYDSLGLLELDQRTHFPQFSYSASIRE

off-target kinases [3] = molecular target: off-target kinases (Homo sapiens, UniProt P29317); details: EPHA2, ZLYTE, ATP Km app
off-target kinases (Homo sapiens, UniProt P29317), sequence (P29317 24-976): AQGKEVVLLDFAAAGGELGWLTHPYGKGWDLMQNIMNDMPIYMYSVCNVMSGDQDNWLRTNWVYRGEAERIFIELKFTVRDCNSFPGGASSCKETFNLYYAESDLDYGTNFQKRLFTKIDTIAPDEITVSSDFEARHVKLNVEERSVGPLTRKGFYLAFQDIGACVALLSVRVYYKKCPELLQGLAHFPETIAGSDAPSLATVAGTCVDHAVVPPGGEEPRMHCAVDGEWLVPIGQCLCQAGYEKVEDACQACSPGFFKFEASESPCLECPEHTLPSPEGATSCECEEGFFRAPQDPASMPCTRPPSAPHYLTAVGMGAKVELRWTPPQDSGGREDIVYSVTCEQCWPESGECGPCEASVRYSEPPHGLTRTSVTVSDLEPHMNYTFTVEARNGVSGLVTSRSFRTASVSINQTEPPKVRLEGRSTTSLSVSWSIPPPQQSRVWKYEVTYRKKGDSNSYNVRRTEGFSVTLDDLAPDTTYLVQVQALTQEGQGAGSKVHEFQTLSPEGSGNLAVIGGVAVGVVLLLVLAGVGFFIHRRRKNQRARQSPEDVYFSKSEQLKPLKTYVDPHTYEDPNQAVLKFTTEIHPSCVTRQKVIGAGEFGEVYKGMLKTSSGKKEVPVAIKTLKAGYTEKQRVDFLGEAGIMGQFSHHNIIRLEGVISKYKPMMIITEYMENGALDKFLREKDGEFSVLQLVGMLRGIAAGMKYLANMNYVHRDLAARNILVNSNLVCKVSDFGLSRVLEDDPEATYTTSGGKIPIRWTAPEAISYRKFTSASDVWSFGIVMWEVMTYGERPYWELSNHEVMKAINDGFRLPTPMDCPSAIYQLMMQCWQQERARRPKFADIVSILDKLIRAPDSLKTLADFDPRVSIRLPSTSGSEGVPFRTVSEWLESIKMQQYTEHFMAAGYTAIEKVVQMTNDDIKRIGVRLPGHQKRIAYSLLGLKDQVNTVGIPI

off-target kinases [4] = molecular target: off-target kinases (Homo sapiens, UniProt P22607, G697C); details: FGFR3 G697C (mutant), LanthaScreen Binding
off-target kinases (Homo sapiens, UniProt P22607, G697C), sequence (P22607 23-806 G697C): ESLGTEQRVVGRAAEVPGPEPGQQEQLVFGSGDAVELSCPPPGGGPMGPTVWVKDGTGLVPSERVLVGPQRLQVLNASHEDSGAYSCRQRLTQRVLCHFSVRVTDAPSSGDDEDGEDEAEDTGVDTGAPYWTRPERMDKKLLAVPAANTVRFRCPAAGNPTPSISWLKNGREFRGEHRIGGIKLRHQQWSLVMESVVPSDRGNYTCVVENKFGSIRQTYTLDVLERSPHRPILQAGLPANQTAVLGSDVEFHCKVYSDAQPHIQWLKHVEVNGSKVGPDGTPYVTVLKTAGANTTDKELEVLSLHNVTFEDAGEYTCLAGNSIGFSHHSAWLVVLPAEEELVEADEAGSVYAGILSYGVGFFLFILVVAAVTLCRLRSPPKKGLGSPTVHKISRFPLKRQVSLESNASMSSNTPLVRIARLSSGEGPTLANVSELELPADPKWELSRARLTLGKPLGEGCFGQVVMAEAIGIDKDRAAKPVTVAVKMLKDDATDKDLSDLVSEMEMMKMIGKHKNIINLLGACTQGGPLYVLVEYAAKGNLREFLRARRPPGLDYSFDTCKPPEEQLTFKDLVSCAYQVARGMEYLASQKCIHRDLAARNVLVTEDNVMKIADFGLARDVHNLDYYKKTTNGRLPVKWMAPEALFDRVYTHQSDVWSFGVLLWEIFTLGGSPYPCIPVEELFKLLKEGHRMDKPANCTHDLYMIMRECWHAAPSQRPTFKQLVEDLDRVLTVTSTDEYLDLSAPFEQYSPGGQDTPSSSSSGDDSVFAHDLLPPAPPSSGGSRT

off-target kinases [5] = molecular target: off-target kinases (Homo sapiens, UniProt Q9UIK4); details: DAPK2, LanthaScreen Binding
off-target kinases [6] = molecular target: off-target kinases (Homo sapiens, UniProt Q96S53); details: TESK2, LanthaScreen Binding
off-target kinases (Homo sapiens, UniProt Q96S53), sequence (Q96S53 whole entry): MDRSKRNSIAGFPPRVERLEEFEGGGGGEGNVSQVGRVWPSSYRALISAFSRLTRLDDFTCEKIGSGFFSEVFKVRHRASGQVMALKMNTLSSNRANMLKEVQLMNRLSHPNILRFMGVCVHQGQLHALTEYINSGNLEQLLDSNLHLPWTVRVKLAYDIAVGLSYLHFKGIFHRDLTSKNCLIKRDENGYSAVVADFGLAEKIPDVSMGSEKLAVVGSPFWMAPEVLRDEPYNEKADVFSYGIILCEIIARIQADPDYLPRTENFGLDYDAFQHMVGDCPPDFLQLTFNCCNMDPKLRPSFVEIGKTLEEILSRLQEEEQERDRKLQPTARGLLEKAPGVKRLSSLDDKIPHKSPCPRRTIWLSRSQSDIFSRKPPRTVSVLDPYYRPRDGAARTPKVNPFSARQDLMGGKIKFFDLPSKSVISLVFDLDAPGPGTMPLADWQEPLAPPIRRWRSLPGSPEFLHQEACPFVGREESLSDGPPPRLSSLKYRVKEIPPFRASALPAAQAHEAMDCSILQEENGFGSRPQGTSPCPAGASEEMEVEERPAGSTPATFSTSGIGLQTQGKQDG

off-target kinases [7] = molecular target: T1, off-target kinases (Homo sapiens, UniProt Q96PF2); details: STK22B (TSSK2), ZLYTE, ATP Km app
T1 sequence (Q96PF2 1-358): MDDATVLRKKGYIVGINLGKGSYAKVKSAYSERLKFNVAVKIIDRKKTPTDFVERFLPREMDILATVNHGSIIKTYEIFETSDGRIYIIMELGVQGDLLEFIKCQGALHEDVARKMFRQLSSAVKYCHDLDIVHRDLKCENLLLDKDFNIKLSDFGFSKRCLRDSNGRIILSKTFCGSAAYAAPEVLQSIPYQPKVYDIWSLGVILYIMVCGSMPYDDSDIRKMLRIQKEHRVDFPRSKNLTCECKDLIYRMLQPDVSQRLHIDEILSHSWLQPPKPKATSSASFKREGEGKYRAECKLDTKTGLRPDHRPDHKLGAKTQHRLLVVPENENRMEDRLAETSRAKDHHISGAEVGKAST

off-target kinases [8] = molecular target: off-target kinases (Homo sapiens, UniProt P12931); details: SRC, ATP Km app, ZLYTE
off-target kinases (Homo sapiens, UniProt P12931), sequence (P12931 whole entry): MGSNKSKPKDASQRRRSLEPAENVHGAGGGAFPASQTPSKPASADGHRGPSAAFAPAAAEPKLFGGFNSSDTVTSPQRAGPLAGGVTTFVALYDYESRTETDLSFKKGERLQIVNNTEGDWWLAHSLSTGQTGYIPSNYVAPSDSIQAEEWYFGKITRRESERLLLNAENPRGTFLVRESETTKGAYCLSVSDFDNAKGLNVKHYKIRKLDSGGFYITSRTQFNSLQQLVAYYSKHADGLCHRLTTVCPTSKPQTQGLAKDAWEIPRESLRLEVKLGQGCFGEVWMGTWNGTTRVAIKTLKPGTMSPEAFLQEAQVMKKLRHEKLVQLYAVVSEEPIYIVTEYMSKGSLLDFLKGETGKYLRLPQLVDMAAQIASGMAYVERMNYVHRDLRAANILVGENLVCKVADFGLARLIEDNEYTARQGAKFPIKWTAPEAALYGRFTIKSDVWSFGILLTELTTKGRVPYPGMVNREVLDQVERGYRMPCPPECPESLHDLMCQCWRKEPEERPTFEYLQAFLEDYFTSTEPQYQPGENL

off-target kinases [9] = molecular target: off-target kinases (Homo sapiens, UniProt Q9NYY3); details: PLK2, ATP Km app, ZLYTE
off-target kinases [10] = molecular target: off-target kinases (Homo sapiens, UniProt P49840); details: GSK3A (GSK3 alpha), ZLYTE, ATP Km app
off-target kinases [11] = molecular target: off-target kinases (Homo sapiens, UniProt Q9H2X6); details: HIPK2, ZLYTE, ATP Km app
off-target kinases (Homo sapiens, UniProt Q9H2X6), sequence (Q9H2X6 whole entry): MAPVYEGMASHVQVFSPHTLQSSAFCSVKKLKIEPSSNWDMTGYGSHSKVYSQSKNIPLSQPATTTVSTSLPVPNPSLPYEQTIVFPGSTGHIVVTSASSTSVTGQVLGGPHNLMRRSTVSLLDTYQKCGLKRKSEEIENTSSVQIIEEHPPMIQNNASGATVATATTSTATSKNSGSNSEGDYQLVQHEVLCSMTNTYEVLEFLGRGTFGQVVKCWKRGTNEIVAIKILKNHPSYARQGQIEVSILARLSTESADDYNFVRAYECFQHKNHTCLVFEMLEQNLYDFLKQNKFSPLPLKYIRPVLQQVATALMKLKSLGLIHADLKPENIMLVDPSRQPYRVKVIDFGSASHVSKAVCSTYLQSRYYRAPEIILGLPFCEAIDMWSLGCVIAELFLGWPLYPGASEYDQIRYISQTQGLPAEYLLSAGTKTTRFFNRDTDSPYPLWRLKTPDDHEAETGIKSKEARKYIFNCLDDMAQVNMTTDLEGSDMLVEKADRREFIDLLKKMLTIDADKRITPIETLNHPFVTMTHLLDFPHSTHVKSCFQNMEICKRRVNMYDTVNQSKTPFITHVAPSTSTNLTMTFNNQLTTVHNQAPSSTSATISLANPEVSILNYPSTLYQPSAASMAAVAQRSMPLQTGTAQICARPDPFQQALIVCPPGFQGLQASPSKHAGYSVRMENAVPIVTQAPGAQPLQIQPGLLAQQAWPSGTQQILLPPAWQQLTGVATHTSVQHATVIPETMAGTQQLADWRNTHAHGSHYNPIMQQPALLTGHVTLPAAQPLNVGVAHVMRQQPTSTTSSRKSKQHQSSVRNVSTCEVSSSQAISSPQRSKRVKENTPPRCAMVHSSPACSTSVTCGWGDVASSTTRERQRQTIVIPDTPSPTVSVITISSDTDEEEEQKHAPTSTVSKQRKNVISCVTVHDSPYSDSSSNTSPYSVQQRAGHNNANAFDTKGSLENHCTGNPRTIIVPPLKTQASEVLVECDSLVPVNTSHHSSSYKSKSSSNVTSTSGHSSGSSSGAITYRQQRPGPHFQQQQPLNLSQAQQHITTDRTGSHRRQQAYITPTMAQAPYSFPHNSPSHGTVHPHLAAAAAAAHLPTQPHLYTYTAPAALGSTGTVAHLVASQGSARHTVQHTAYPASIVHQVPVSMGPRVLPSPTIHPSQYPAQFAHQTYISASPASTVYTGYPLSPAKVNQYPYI

Q: `N#Cc1cc(-c2ncnc(Nc3ccc(N4CCN(C5COC5)CC4)cc3)n2)ccc1OC1CCOCC1` [Compound 1, 5-(4-((4-(4-(oxetan-3-yl)piperazin-1-yl)phenyl)amino)-1,3,5-triazin-2-yl)-2-((tetrahydro-2H-pyran-4-yl)oxy)benzonitrile] was tested. Which inhibition (off-target kinases [1]; read-out: % Inhibition 1) did it give?
A: The inhibition was 18%.

Q: And the inhibition (off-target kinases [1]; read-out: % Inhibition 2)?
A: Its inhibition is 19%.

Q: What about the inhibition (off-target kinases [1]; read-out: % Inhibition Avg) of the same molecule?
A: Its inhibition is 19%.

Q: And the inhibition (off-target kinases [2]; read-out: % Inhibition 1)?
A: The inhibition was 3%.

Q: And the inhibition (off-target kinases [2]; read-out: % Inhibition 2)?
A: Its inhibition is 2%.

Q: And the inhibition (off-target kinases [2]; read-out: % Inhibition Avg)?
A: The inhibition was 3%.

Q: And the inhibition (off-target kinases [3]; read-out: % Inhibition 1)?
A: Its inhibition is 1%.

Q: And the inhibition (off-target kinases [3]; read-out: % Inhibition 2)?
A: The inhibition was 12%.

Q: What about the inhibition (off-target kinases [3]; read-out: % Inhibition Avg) of the same molecule?
A: The inhibition was 6%.

Q: What about the inhibition (off-target kinases [4]; read-out: % Inhibition 1) of the same molecule?
A: The inhibition was 13%.

Q: What about the inhibition (off-target kinases [4]; read-out: % Inhibition 2) of the same molecule?
A: The inhibition was 4%.

Q: And the inhibition (off-target kinases [4]; read-out: % Inhibition Avg)?
A: The inhibition was 8%.

Q: And the inhibition (off-target kinases [5]; read-out: % Inhibition 1)?
A: The inhibition was 60%.

Q: And the inhibition (off-target kinases [5]; read-out: % Inhibition 2)?
A: The inhibition was 53%.

Q: What about the inhibition (off-target kinases [5]; read-out: % Inhibition Avg) of the same molecule?
A: Its inhibition is 56%.

Q: What about the inhibition (off-target kinases [6]; read-out: % Inhibition 1) of the same molecule?
A: Its inhibition is 14%.

Q: What about the inhibition (off-target kinases [6]; read-out: % Inhibition 2) of the same molecule?
A: Its inhibition is -3%.

Q: And the inhibition (off-target kinases [6]; read-out: % Inhibition Avg)?
A: The inhibition was 6%.

Q: What about the inhibition (off-target kinases [7]; read-out: % Inhibition 1) of the same molecule?
A: Its inhibition is 12%.

Q: And the inhibition (off-target kinases [7]; read-out: % Inhibition 2)?
A: The inhibition was 14%.

Q: And the inhibition (off-target kinases [7]; read-out: % Inhibition Avg)?
A: The inhibition was 13%.

Q: And the inhibition (off-target kinases [8]; read-out: % Inhibition 1)?
A: Its inhibition is 45%.

Q: What about the inhibition (off-target kinases [8]; read-out: % Inhibition 2) of the same molecule?
A: Its inhibition is 44%.

Q: What about the inhibition (off-target kinases [8]; read-out: % Inhibition Avg) of the same molecule?
A: The inhibition was 45%.

Q: And the inhibition (off-target kinases [9]; read-out: % Inhibition 1)?
A: The inhibition was 60%.

Q: What about the inhibition (off-target kinases [9]; read-out: % Inhibition 2) of the same molecule?
A: The inhibition was 64%.

Q: And the inhibition (off-target kinases [9]; read-out: % Inhibition Avg)?
A: The inhibition was 62%.

Q: And the inhibition (off-target kinases [10]; read-out: % Inhibition 1)?
A: Its inhibition is 20%.

Q: What about the inhibition (off-target kinases [10]; read-out: % Inhibition 2) of the same molecule?
A: Its inhibition is 22%.

Q: And the inhibition (off-target kinases [10]; read-out: % Inhibition Avg)?
A: The inhibition was 21%.

Q: What about the inhibition (off-target kinases [11]; read-out: % Inhibition 1) of the same molecule?
A: The inhibition was 21%.

Q: And the inhibition (off-target kinases [11]; read-out: % Inhibition 2)?
A: Its inhibition is 19%.

Q: What about the inhibition (off-target kinases [11]; read-out: % Inhibition Avg) of the same molecule?
A: The inhibition was 20%.
